Source: ChEMBL document CHEMBL4002635, “A novel monoterpenoid indole alkaloid with anticancer activity from Melodinus khasianus” (Bioorg Med Chem Lett, 2017)

Assays:
A549 = assay: Antiproliferative activity against human A549 cells after 48 hrs by MTT assay; format: functional, cell-based; settings: A549, 48 h
K562 = assay: Antiproliferative activity against human K562 cells after 48 hrs by MTT assay; format: functional, cell-based; settings: K562, 48 h
PC-3 [1] = assay: Antiproliferative activity against human PC3 cells after 48 hrs by MTT assay; format: functional, cell-based; settings: PC-3, 48 h
MDA-MB-231 = assay: Antiproliferative activity against human MDA-MB-231 cells after 48 hrs by MTT assay; format: functional, cell-based; settings: MDA-MB-231, 48 h
PC-3 [2] = assay: Induction of apoptosis in human PC3 cells assessed as live cells at 0.1 uM after 24 hrs by Annexin-V FITC/7-AAD staining based flow cytometry (reference value: 98.8%); format: functional
PC-3 [3] = assay: Induction of apoptosis in human PC3 cells assessed as early apoptotic cells at 0.1 uM after 24 hrs by Annexin-V FITC/7-AAD staining based flow cytometry (reference value: 0.1%); format: functional
PC-3 [4] = assay: Induction of apoptosis in human PC3 cells assessed as late apoptotic cells at 0.1 uM after 24 hrs by Annexin-V FITC/7-AAD staining based flow cytometry (reference value: 0.31%); format: functional
PC-3 [5] = assay: Induction of apoptosis in human PC3 cells assessed as necrotic cells at 0.1 uM after 24 hrs by Annexin-V FITC/7-AAD staining based flow cytometry (reference value: 0.02%); format: functional
PC-3 [6] = assay: Induction of apoptosis in human PC3 cells assessed as live cells at 1 uM after 24 hrs by Annexin-V FITC/7-AAD staining based flow cytometry (reference value: 98.8%); format: functional
PC-3 [7] = assay: Induction of apoptosis in human PC3 cells assessed as early apoptotic cells at 1 uM after 24 hrs by Annexin-V FITC/7-AAD staining based flow cytometry (reference value: 0.1%); format: functional
PC-3 [8] = assay: Induction of apoptosis in human PC3 cells assessed as late apoptotic cells at 1 uM after 24 hrs by Annexin-V FITC/7-AAD staining based flow cytometry (reference value: 0.31%); format: functional
PC-3 [9] = assay: Induction of apoptosis in human PC3 cells assessed as necrotic cells at 1 uM after 24 hrs by Annexin-V FITC/7-AAD staining based flow cytometry (reference value: 0.02%); format: functional
PC-3 [10] = assay: Induction of apoptosis in human PC3 cells assessed as live cells at 10 uM after 24 hrs by Annexin-V FITC/7-AAD staining based flow cytometry (reference value: 98.8%); format: functional
PC-3 [11] = assay: Induction of apoptosis in human PC3 cells assessed as early apoptotic cells at 10 uM after 24 hrs by Annexin-V FITC/7-AAD staining based flow cytometry (reference value: 0.1%); format: functional
PC-3 [12] = assay: Induction of apoptosis in human PC3 cells assessed as late apoptotic cells at 10 uM after 24 hrs by Annexin-V FITC/7-AAD staining based flow cytometry (reference value: 0.31%); format: functional
PC-3 [13] = assay: Induction of apoptosis in human PC3 cells assessed as necrotic cells at 10 uM after 24 hrs by Annexin-V FITC/7-AAD staining based flow cytometry (reference value: 0.02%); format: functional
PC-3 [14] = assay: Induction of apoptosis in human PC3 cells assessed as caspase 3A negative cells at 0.1 uM after 24 hrs by flow cytometry (reference value: 97.5%); format: functional
PC-3 [15] = assay: Induction of apoptosis in human PC3 cells assessed as caspase 3A positive cells at 0.1 uM after 24 hrs by flow cytometry (reference value: 2.45%); format: functional
PC-3 [16] = assay: Induction of apoptosis in human PC3 cells assessed as caspase 3A negative cells at 1 uM after 24 hrs by flow cytometry (reference value: 97.5%); format: functional
PC-3 [17] = assay: Induction of apoptosis in human PC3 cells assessed as caspase 3A positive cells at 1 uM after 24 hrs by flow cytometry (reference value: 2.45%); format: functional
PC-3 [18] = assay: Induction of apoptosis in human PC3 cells assessed as caspase 3A negative cells at 10 uM after 24 hrs by flow cytometry (reference value: 97.5%); format: functional
PC-3 [19] = assay: Induction of apoptosis in human PC3 cells assessed as caspase 3A positive cells at 10 uM after 24 hrs by flow cytometry (reference value: 2.45%); format: functional
PC-3 [20] = assay: Induction of apoptosis in human PC3 cells assessed as increase in active caspase 3A after 24 hrs by flow cytometry; format: functional, cell-based
PC-3 [21] = assay: Induction of apoptosis in human PC3 cells assessed as downregulation of Bcl2 protein expression after 48 hrs by Western blot method; format: functional, cell-based
PC-3 [22] = assay: Induction of apoptosis in human PC3 cells assessed as increase in caspase-3 protein expression after 48 hrs by Western blot method; format: functional, cell-based
PC-3 [23] = assay: Induction of apoptosis in human PC3 cells assessed as increase in p53 protein expression after 48 hrs by Western blot method; format: functional, cell-based

C/C=C(/CO)[C@H]1C[C@@H]2c3[nH]c4ccccc4c3C[C@H]3N2C(=O)[C@@]13COC gave an IC50 (A549) of 3260 nM, an IC50 (K562) of 1220 nM and an IC50 (PC-3 [1]) of 740 nM. It also gave an IC50 (MDA-MB-231) of 1840 nM, an Activity (PC-3 [2]) of 98.3% and an Activity (PC-3 [3]) of 0.27%. It also gave an Activity (PC-3 [4]) of 0.56%, an Activity (PC-3 [5]) of 0.85% and an Activity (PC-3 [6]) of 97.3%. The Activity (PC-3 [7]) was 0.7%, the Activity (PC-3 [8]) was 1.14% and the Activity (PC-3 [9]) was 0.87%. For the same compound, the Activity (PC-3 [10]) was 79.7%, the Activity (PC-3 [11]) was 6.25% and the Activity (PC-3 [12]) was 8.97%. For the same compound, the Activity (PC-3 [13]) was 5.05%, the Activity (PC-3 [14]) was 97.1% and the Activity (PC-3 [15]) was 2.89%. For the same compound, the Activity (PC-3 [16]) was 95.9%, the Activity (PC-3 [17]) was 4.1% and the Activity (PC-3 [18]) was 89.1%. For the same compound, the Activity (PC-3 [19]) was 10.9%, the Activity (PC-3 [20]) was “Dose-dependent effect” and the Activity (PC-3 [21]) was “Dose-dependent effect”. The Activity (PC-3 [22]) was “Dose-dependent effect” and the Activity (PC-3 [23]) was “Dose-dependent effect”.
